# Test results published in ChEMBL document CHEMBL4715821, “Discovery of 4-ethoxy-7H-pyrrolo[2,3-d]pyrimidin-2-amines as potent, selective and orally bioavailable LRRK2 inhibitors” (Bioorg Med Chem Lett, 2018).
# Assays:
# [1] = biological target: Serine/threonine-protein kinase MRCK gamma (Homo sapiens) (UniProt Q6DT37); assay: Inhibition of wild-type human partial length DMPK2 (S46 to S408 residues) expressed in bacterial expression system assessed as residual activity at 1 uM by Kinomescan method relative to control
# [2] = biological target: Tyrosine-protein kinase JAK1 (Homo sapiens) (UniProt P23458); assay: Inhibition of wild-type human partial length JAK1 JH2 pseudokinase domain (R537 to D855 residues) expressed in mammalian expression system assessed as residual activity at 1 uM by Kinomescan method relative to control
# [3] = biological target: Tyrosine-protein kinase Tec (Homo sapiens) (UniProt P42680); assay: Inhibition of wild-type human partial length TEC (L341 to D620 residues) expressed in bacterial expression system assessed as residual activity at 1 uM by Kinomescan method relative to control
# [4] = biological target: Serine/threonine-protein kinase MARK2 (Homo sapiens) (UniProt Q7KZI7); assay: Inhibition of wild-type human partial length MARK2 (M1 to R450 residues) expressed in bacterial expression system assessed as residual activity at 1 uM by Kinomescan method relative to control
# [5] = In vivo inhibition of LRRK2 in Han-Wistar rat assessed as reduction in Ser935 phosphorylation in brain at 100 mg/kg, po by Western blot analysis; assay type: functional; set-up: scale not given: the % may be the effect or the level left
# [6] = biological target: Mitogen-activated protein kinase 10 (Homo sapiens) (UniProt P53779); assay: Inhibition of wild-type human partial length JNK3 (V28 to Q422 residues) expressed in mammalian expression system assessed as residual activity at 1 uM by Kinomescan method relative to control
# [7] = biological target: Leukocyte tyrosine kinase receptor (Homo sapiens) (UniProt P29376); assay: Inhibition of wild-type human partial length LTK (P422 to S744 residues) expressed in bacterial expression system assessed as residual activity at 1 uM by Kinomescan method relative to control
# [8] = biological target: Serine/threonine-protein kinase Sgk2 (Homo sapiens) (UniProt Q9HBY8); assay: Inhibition of wild-type human partial length SGK2 (L54 to C427 residues) expressed in mammalian expression system assessed as residual activity at 1 uM by Kinomescan method relative to control
# [9] = biological target: Aurora kinase B (Homo sapiens) (UniProt Q96GD4); assay: Inhibition of wild-type human partial length AURKB (D25 to A303 residues) expressed in mammalian expression system assessed as residual activity at 1 uM by Kinomescan method relative to control
# [10] = biological target: High affinity nerve growth factor receptor (Homo sapiens) (UniProt P04629); assay: Inhibition of wild-type human partial length TRKA (G475 to G790 residues) expressed in mammalian expression system assessed as residual activity at 1 uM by Kinomescan method relative to control
# [11] = biological target: Tyrosine-protein kinase CSK (Homo sapiens) (UniProt P41240); assay: Inhibition of wild-type human full length CSK (M1 to L450 residues) expressed in bacterial expression system assessed as residual activity at 1 uM by Kinomescan method relative to control
# [12] = biological target: Serine/threonine-protein kinase Nek3 (Homo sapiens) (UniProt P51956); assay: Inhibition of wild-type human full length NEK3 (M1 to R506 residues) expressed in mammalian expression system assessed as residual activity at 1 uM by Kinomescan method relative to control
# [13] = biological target: Myosin-IIIb (Homo sapiens) (UniProt Q8WXR4); assay: Inhibition of wild-type human partial length MYO3B (M1 to D357 residues) expressed in bacterial expression system assessed as residual activity at 1 uM by Kinomescan method relative to control
# [14] = biological target: Discoidin domain-containing receptor 2 (Homo sapiens) (UniProt Q16832); assay: Inhibition of wild-type human partial length DDR2 (V555 to E855 residues) expressed in mammalian expression system assessed as residual activity at 1 uM by Kinomescan method relative to control
# [15] = biological target: Casein kinase I isoform epsilon (Homo sapiens) (UniProt P49674); assay: Inhibition of CK1epsilon (unknown origin) assessed as residual activity at 1 uM by Kinomescan method relative to control
# [16] = biological target: Platelet-derived growth factor receptor alpha (Homo sapiens) (UniProt P16234); assay: Inhibition of wild-type human partial length PDGFRA (V575 to D1002 residues) expressed in mammalian expression system assessed as residual activity at 1 uM by Kinomescan method relative to control
# [17] = biological target: Dual specificity tyrosine-phosphorylation-regulated kinase 1B (Homo sapiens) (UniProt Q9Y463); assay: Inhibition of wild-type human full length DYRK1B (M1 to S629 residues) expressed in bacterial expression system assessed as residual activity at 1 uM by Kinomescan method relative to control
# [18] = biological target: Cyclin-dependent kinase 7/ cyclin H (Homo sapiens) (UniProt P51946+P50613); assay: Inhibition of wild-type human full length CDK7 (M1 to L344 residues)/cyclin H expressed in mammalian expression system assessed as residual activity at 1 uM by Kinomescan method relative to control
# [19] = In vivo inhibition of LRRK2 in C57BL6 mouse assessed as reduction in Ser935 phosphorylation in kidney at 45 mg/kg, po after 1 hr by Western blot analysis; assay type: functional; set-up: scale not given: the % may be the effect or the level left
# [20] = biological target: Myotonin-protein kinase (Homo sapiens) (UniProt Q09013); assay: Inhibition of wild-type human partial length DMPK (V47 to V415 residues) expressed in bacterial expression system assessed as residual activity at 1 uM by Kinomescan method relative to control
# [21] = Metabolic stability in human liver microsomes assessed as intrinsic clearance; assay type: ADME, Microsome
# [22] = biological target: Tyrosine-protein kinase ZAP-70 (Homo sapiens) (UniProt P43403); assay: Inhibition of wild-type human partial length ZAP70 (D20 to G299 residues) expressed in mammalian expression system assessed as residual activity at 1 uM by Kinomescan method relative to control
# [23] = biological target: Dual specificity protein kinase CLK1 (Homo sapiens) (UniProt P49759); assay: Inhibition of wild-type human full length CLK1 (M1 to I484 residues) expressed in bacterial expression system assessed as residual activity at 1 uM by Kinomescan method relative to control
# [24] = biological target: STE20/SPS1-related proline-alanine-rich protein kinase (Homo sapiens) (UniProt Q9UEW8); assay: Inhibition of wild-type human partial length STK39 (P43 to I357 residues) expressed in mammalian expression system assessed as residual activity at 1 uM by Kinomescan method relative to control
# [25] = biological target: Fibroblast growth factor receptor 3 (Homo sapiens) (UniProt P22607); assay: Inhibition of wild-type human partial length FGFR3 (R442 to S771 residues) expressed in bacterial expression system assessed as residual activity at 1 uM by Kinomescan method relative to control
# [26] = biological target: Maternal embryonic leucine zipper kinase (Homo sapiens) (UniProt Q14680); assay: Inhibition of wild-type human full length MELK (M1 to V651 residues) expressed in bacterial expression system assessed as residual activity at 1 uM by Kinomescan method relative to control
# [27] = biological target: Mast/stem cell growth factor receptor Kit (Homo sapiens) (UniProt P10721); assay: Inhibition of c-kit (unknown origin) assessed as residual activity at 1 uM relative to control
# [28] = Lipophilicity, logD of compound at pH 7.4; settings: buffer
# Sequence of Mast/stem cell growth factor receptor Kit (Homo sapiens) (P10721 whole entry): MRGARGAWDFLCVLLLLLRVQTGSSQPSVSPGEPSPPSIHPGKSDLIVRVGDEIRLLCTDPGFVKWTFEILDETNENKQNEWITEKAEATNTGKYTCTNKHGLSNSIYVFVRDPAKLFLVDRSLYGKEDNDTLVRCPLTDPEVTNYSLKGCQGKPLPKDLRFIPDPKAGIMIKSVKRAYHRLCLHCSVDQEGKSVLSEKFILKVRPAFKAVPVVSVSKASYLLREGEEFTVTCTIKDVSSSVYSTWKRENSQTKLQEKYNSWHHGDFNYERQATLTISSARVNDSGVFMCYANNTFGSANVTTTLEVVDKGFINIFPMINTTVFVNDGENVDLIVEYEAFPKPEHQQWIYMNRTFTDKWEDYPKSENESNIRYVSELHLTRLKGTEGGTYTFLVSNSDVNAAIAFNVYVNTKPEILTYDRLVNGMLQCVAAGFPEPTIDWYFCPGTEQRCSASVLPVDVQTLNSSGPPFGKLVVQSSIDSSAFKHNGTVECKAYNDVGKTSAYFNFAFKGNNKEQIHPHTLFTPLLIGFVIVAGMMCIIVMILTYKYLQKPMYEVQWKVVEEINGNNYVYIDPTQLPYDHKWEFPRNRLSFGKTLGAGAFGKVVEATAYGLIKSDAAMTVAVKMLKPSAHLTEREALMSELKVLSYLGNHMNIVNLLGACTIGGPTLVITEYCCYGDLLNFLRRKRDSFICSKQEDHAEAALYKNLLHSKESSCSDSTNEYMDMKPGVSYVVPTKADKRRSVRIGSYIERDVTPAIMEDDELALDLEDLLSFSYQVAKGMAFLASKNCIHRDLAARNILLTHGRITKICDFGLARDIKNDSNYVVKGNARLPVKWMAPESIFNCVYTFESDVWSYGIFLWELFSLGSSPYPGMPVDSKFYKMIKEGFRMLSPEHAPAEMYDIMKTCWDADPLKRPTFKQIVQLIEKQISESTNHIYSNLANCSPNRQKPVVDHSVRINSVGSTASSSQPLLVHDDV
# Sequence of Tyrosine-protein kinase JAK1 (Homo sapiens) (P23458 whole entry, the tested form may be a part): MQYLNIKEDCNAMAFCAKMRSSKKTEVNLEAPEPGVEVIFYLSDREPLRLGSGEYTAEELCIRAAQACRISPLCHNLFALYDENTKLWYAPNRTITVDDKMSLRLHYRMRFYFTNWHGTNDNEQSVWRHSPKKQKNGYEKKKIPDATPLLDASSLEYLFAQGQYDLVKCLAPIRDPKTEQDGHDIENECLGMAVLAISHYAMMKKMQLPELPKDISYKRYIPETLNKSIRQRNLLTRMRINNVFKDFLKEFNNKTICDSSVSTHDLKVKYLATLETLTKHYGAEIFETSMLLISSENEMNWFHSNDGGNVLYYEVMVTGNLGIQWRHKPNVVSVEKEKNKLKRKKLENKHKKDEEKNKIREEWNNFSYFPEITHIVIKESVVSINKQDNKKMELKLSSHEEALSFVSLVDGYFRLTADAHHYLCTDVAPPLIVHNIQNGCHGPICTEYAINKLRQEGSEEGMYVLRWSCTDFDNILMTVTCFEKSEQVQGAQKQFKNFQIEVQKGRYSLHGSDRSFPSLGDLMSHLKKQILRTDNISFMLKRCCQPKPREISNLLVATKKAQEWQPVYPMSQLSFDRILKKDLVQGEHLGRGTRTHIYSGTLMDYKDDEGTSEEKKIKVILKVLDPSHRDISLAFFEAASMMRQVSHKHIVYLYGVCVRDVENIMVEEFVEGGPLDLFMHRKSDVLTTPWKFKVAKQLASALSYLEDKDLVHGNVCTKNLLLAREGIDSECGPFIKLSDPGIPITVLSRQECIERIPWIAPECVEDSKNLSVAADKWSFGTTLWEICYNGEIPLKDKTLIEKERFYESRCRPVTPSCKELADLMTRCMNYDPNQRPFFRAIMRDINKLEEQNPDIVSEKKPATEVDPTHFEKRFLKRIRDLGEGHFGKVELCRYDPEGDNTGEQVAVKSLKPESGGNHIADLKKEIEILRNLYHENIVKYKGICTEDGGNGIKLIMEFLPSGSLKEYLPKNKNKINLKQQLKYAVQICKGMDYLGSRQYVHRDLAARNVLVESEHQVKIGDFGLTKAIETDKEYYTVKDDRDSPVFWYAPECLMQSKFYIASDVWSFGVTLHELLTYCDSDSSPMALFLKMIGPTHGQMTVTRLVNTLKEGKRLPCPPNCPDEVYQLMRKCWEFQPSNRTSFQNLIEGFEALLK
# Sequence of Maternal embryonic leucine zipper kinase (Homo sapiens) (Q14680 whole entry, looked up, the tested form may be a part): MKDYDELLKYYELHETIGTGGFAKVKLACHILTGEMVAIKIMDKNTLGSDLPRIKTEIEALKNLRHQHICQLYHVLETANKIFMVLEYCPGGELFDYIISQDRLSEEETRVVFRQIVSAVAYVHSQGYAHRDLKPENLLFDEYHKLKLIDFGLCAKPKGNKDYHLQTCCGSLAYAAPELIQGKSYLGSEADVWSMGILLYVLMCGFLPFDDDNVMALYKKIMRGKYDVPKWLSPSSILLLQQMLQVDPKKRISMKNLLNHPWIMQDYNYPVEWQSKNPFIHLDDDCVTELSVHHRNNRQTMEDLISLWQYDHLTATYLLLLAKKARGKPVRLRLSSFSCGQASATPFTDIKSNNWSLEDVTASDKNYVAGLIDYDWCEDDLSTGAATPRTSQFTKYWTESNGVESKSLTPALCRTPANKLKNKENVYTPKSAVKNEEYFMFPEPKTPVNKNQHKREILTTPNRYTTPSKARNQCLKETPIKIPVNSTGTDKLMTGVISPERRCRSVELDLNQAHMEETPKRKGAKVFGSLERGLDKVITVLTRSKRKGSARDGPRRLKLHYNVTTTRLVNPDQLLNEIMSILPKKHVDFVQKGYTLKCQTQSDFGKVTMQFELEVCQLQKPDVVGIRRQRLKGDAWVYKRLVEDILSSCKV
# Sequence of Mitogen-activated protein kinase 10 (Homo sapiens) (P53779 whole entry, the tested form may be a part): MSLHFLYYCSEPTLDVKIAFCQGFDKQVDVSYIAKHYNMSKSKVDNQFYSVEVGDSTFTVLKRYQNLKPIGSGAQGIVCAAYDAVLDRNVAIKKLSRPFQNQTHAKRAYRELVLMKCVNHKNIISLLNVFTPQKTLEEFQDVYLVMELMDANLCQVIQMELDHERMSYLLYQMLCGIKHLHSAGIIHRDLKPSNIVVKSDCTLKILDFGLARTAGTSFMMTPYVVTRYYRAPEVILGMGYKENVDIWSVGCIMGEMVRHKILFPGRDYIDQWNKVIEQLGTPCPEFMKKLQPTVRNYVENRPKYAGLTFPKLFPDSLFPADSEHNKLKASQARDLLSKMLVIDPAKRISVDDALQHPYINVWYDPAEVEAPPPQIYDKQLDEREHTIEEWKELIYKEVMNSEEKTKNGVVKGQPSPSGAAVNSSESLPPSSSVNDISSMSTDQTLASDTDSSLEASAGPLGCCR
# Sequence of Myosin-IIIb (Homo sapiens) (Q8WXR4 whole entry, the tested form may be a part): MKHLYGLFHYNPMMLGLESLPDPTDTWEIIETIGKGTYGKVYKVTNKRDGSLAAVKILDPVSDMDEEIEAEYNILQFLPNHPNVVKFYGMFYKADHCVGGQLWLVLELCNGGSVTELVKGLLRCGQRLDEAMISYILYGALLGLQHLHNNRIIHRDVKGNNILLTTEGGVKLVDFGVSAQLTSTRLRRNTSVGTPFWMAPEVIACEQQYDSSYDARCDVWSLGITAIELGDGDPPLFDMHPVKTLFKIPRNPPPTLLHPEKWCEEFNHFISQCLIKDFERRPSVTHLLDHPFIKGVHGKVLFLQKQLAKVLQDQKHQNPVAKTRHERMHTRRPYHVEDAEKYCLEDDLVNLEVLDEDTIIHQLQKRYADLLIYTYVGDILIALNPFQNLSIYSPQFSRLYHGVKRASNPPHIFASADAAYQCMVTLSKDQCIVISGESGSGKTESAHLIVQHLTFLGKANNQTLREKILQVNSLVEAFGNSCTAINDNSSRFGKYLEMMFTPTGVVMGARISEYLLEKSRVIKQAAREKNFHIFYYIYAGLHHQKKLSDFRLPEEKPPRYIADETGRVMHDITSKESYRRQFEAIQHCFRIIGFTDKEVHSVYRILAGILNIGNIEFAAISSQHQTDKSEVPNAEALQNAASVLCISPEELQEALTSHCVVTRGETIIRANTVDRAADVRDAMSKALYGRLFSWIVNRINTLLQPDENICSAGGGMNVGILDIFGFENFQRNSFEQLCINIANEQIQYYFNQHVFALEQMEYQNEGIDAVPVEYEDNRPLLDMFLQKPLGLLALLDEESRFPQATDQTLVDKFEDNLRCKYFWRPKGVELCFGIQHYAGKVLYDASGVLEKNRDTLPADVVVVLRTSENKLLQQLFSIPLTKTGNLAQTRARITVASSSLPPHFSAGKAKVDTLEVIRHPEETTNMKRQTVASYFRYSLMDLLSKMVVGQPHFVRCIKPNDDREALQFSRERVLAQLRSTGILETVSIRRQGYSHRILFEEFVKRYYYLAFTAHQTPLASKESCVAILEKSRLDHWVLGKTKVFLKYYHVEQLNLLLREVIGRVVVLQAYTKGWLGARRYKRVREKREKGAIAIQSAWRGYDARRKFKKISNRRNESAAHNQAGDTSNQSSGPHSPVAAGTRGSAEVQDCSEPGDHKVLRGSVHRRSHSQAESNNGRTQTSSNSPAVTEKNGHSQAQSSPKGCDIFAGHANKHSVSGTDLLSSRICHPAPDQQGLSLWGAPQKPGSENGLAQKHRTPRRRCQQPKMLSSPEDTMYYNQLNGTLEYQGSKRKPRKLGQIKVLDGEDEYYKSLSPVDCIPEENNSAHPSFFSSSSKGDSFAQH
# Sequence of Casein kinase I isoform epsilon (Homo sapiens) (P49674 whole entry, looked up, the tested form may be a part, canonical isoform): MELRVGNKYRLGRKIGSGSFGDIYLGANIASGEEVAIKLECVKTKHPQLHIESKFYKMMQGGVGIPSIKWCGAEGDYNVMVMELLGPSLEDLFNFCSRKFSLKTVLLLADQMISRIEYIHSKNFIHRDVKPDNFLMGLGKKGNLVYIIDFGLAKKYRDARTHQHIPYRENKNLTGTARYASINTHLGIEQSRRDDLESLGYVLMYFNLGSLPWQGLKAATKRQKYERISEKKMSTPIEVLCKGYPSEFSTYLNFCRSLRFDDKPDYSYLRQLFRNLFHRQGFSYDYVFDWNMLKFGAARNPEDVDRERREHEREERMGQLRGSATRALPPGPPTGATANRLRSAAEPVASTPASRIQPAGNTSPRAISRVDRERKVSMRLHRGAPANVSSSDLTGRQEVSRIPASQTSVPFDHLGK
structure (smiles),measurement,setting,value
CCOc1nc(Nc2ccc(C(=O)N3CCOCC3)cc2OC)nc2[nH]ccc12,Activity,[1],106%
same,Activity,[2],97.3%
same,Activity,[3],99.3%
same,Activity,[4],96%
same,Activity,[5],75%
same,Activity,[6],100%
same,Activity,[7],20.2%
same,Activity,[8],88.7%
same,Activity,[9],90.7%
same,Activity,[10],105%
same,Activity,[11],104%
same,Activity,[12],104%
same,Activity,[13],48.9%
same,Activity,[14],95.7%
same,Activity,[15],69.6%
same,Activity,[16],101%
same,Activity,[17],66.9%
same,Activity,[18],93.8%
same,Activity,[19],80%
same,Activity,[20],103%
same,CLH,[21],1.1 mL/min/g
same,Activity,[22],124%
same,Activity,[23],37.4%
same,Activity,[24],97.5%
same,Activity,[25],103%
same,Activity,[26],97.9%
same,Activity,[27],98.6%
same,logD,[28],4.5
